Laboratory results as given in US11117883B2 (Ariad Pharmaceuticals, Inc., priority 2016, dated 2021).

Columns and labels:
Experiment in all cases: c-Kit assay: Ba/F3 KIT mutant viability (Cell Titer-Glo, 72 hours)
Format in all cases: cell-based
BAF3 FL KIT EX11DEL = target: T1, BAF3 FL KIT EX11DEL (Homo sapiens, UniProt P10721, cells depend on it, form not given); conditions: viability after 72 hours
T1 construct: "BAF3 FL KIT EX11DEL"
Method: (§1) KIT cDNAs were synthesized by GenScript and cloned into the pLVX-IRES-Puro vector (Clontech). Viral particles were produced by transfecting pLVX-IRES-puro vectors containing KIT mutant genes into HEK293 cells (Invitrogen) using the Trans-Lentiviral ORF Packaging Kit (Thermo Scientific). 48 hours post-transfection, virus-containing supernatants were harvested and incubated for another 48-72 hours with parental Ba/F3 cells (DSMZ) in the presence of 10 ng/mL […] (R&D Systems). Transduced Ba/F3 cells were then selected by IL-3 withdrawal and puromycin (0.5-1 μg/mL, Invitrogen).
(§2) Cell lines (i.e., EX11DEL, EX11DEL/D816H, EX11DEL/T670I, and EX11DEL/V654A) were plated into 384 well plates using RPMI 1640 supplemented with 10% FBS at densities that produced linear growth and incubated at 37° C. in 5% (v/v) CO2. Cells were treated with eight concentrations of compound over a 4-fold dilution (10 μM to 0.61 nM) and viability was assessed using Cell Titer-Glo assay (Promega) after 72 hours. Data were plotted as percent viability relative to vehicle-treated cells. Dose-responses curves were generated and used to calculate IC50 values.

[1] = target: T2, BAF3 FL KIT EX11DEL/D816H (Homo sapiens, UniProt P10721, D816H, cells depend on it, form not given); conditions: viability after 72 hours
T2 construct: "BAF3 FL KIT EX11DEL/ D816H"
Method: as §1, §2

[2] = target: T3, BAF3 FL KIT EX11DEL/T6701 (Homo sapiens, UniProt P10721, T670I, cells depend on it, form not given); conditions: EX11DEL/T6701, viability after 72 hours
T3 construct: "BAF3 FL KIT EX11DEL/ T6701"
Method: as §1, §2

[3] = target: T4, BAF3 FL KIT EX11DEL/V654A (Homo sapiens, UniProt P10721, V654A, cells depend on it, form not given); conditions: viability after 72 hours
T4 construct: "BAF3 FL KIT EX11DEL/ V654A"
Method: as §1, §2

T4 sequence (P10721 with tags, fused parts or gaps DEL557-558/V654A, form open): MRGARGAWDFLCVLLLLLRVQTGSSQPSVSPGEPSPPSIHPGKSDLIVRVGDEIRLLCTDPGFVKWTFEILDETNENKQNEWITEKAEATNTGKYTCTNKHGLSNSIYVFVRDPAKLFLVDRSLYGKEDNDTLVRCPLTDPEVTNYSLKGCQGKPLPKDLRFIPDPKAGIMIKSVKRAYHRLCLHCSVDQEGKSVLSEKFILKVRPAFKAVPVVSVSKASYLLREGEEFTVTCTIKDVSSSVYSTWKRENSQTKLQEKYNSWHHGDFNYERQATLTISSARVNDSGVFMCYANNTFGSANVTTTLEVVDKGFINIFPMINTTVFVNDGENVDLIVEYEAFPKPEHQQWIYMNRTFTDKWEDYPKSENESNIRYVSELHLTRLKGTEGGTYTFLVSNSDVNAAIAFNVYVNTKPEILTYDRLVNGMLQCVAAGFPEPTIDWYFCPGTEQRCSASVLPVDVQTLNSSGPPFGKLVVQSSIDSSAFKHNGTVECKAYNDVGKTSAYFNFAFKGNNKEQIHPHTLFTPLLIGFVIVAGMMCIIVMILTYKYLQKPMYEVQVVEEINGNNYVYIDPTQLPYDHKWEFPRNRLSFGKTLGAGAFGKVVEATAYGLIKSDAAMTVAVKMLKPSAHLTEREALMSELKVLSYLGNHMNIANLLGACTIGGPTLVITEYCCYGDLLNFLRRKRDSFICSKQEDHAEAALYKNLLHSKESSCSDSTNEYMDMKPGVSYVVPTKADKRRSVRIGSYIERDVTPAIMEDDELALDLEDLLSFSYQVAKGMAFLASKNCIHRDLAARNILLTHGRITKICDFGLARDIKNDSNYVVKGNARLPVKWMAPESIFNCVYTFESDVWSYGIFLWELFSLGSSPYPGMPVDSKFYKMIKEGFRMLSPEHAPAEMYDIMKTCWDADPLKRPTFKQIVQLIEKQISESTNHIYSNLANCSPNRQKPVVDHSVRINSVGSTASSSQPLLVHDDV
T1 sequence (P10721 with tags, fused parts or gaps DEL557-558): as the sequence (P10721 with tags, fused parts or gaps DEL557-558/V654A, form open) above, with A652V counted along it
T2 sequence (P10721 with tags, fused parts or gaps DEL557-558/D816H, form open): as the sequence (P10721 with tags, fused parts or gaps DEL557-558/V654A, form open) above, with A652V, D814H counted along it
T3 sequence (P10721 with tags, fused parts or gaps DEL557-558/T670I, form open): as the sequence (P10721 with tags, fused parts or gaps DEL557-558/V654A, form open) above, with A652V, T668I counted along it

Cc1ccc(C(=O)Nc2cc(C(F)(F)F)ccn2)cc1C#Cc1ccc2c(c1)ncn2-c1cnn(C2CCN(C=O)CC2)c1 [Compound I-25, 3-((1-(1-(1-formylpiperidin-4-yl)-1H-pyrazol-4-yl)-1H-benzo[d]imidazol-5-yl)ethynyl)-4-methyl-N-(4-(trifluoromethyl)pyridin-2-yl)benzamide]
GI50 (BAF3 FL KIT EX11DEL): < 10 nM
GI50 [1]: 10 to 50 nM
GI50 [2]: < 10 nM
GI50 [3]: 10 to 50 nM

Cc1ccc(C(=O)Nc2cc(C(F)(F)F)ccn2)cc1C#Cc1ccc2c(c1)ncn2-c1cnn(C2CCNCC2)c1 [Compound I-26, 4-methyl-3-((1-(1-(piperidin-4-yl)-1H-pyrazol-4-yl)-1H-benzo[d]imidazol-5-yl)ethynyl)-N-(4-(trifluoromethyl)pyridin-2-yl)benzamide]
GI50 (BAF3 FL KIT EX11DEL): < 10 nM
GI50 [1]: 10 to 50 nM
GI50 [2]: 10 to 50 nM
GI50 [3]: 10 to 50 nM

Cc1ccc(C(=O)Nc2cc(C(F)(F)F)ccn2)cc1C#Cc1ccc2c(c1)ncn2-c1cnn(C2CCN(C)CC2)c1 [Compound I-27, 4-methyl-3-((1-(1-(1-methylpiperidin-4-yl)-1H-pyrazol-4-yl)-1H-benzo[d]imidazol-5-yl)ethynyl)-N-(4-(trifluoromethyl)pyridin-2-yl)benzamide]
GI50 (BAF3 FL KIT EX11DEL): < 10 nM
GI50 [1]: 10 to 50 nM
GI50 [2]: 10 to 50 nM
GI50 [3]: 10 to 50 nM

Cc1ccc(C(=O)Nc2cccc(C3CC3)c2)cc1C#Cc1ccc2c(c1)ncn2-c1cnn(C)c1 [Compound I-28, N-(3-cyclopropylphenyl)-4-methyl-3-((1-(1-methyl-1H-pyrazol-4-yl)-1H-benzo[d]imidazol-5-yl)ethynyl)benzamide]
GI50 (BAF3 FL KIT EX11DEL): 10 to 50 nM
GI50 [1]: 50 to 100 nM
GI50 [2]: 10 to 50 nM
GI50 [3]: 50 to 100 nM

Cc1ccc(C(=O)Nc2ccc(CN3CCCC3)c(C(F)(F)F)c2)cc1C#Cc1ccc2c(c1)ncn2-c1cnn(C)c1 [Compound I-29, 4-methyl-3-((1-(1-methyl-1H-pyrazol-4-yl)-1H-benzo[d]imidazol-5-yl)ethynyl)-N-(4-(pyrrolidin-1-ylmethyl)-3-(trifluoromethyl)phenyl)benzamide]
GI50 (BAF3 FL KIT EX11DEL): 10 to 50 nM
GI50 [1]: 10 to 50 nM
GI50 [2]: 10 to 50 nM
GI50 [3]: 50 to 100 nM

Cc1ccc(C(=O)Nc2ccc(CN3CCCC3)c(C(F)(F)F)c2)cc1C#Cc1ccc2c(c1)ncn2C [Compound I-30, 4-methyl-3-((1-methyl-1H-benzo[d]imidazol-5-yl)ethynyl)-N-(4-(pyrrolidin-1-ylmethyl)-3-(trifluoromethyl)phenyl)benzamide]
GI50 (BAF3 FL KIT EX11DEL): 10 to 50 nM
GI50 [1]: 100 to 10000 nM
GI50 [2]: 50 to 100 nM
GI50 [3]: 50 to 100 nM

Cc1ccc(C(=O)Nc2cc(C(F)(F)F)ccn2)cc1C#Cc1ccc2c(c1)ncn2-c1cnn(CCO)c1 [Compound I-31, 3-((1-(1-(2-hydroxyethyl)-1H-pyrazol-4-yl)-1H-benzo[d]imidazol-5-yl)ethynyl)-4-methyl-N-(4-(trifluoromethyl)pyridin-2-yl)benzamide]
GI50 (BAF3 FL KIT EX11DEL): < 10 nM
GI50 [1]: 10 to 50 nM
GI50 [2]: < 10 nM
GI50 [3]: 10 to 50 nM

COCCn1cc(-n2cnc3cc(C#Cc4cc(C(=O)Nc5cc(C(F)(F)F)ccn5)ccc4C)ccc32)cn1 [Compound I-32, 3-((1-(1-(2-methoxyethyl)-1H-pyrazol-4-yl)-1H-benzo[d]imidazol-5-yl)ethynyl)-4-methyl-N-(4-(trifluoromethyl)pyridin-2-yl)benzamide]
GI50 (BAF3 FL KIT EX11DEL): < 10 nM
GI50 [1]: 10 to 50 nM
GI50 [2]: < 10 nM
GI50 [3]: 10 to 50 nM

Cc1ccc(C(=O)Nc2cc(C(F)(F)F)ccn2)cc1C#Cc1ccc2c(c1)ncn2-c1cnn(C2CCOCC2)c1 [Compound I-33, 4-methyl-3-((1-(1-(tetrahydro-2H-pyran-4-yl)-1H-pyrazol-4-yl)-1H-benzo[d]imidazol-5-yl)ethynyl)-N-(4-(trifluoromethyl)pyridin-2-yl)benzamide]
GI50 (BAF3 FL KIT EX11DEL): < 10 nM
GI50 [1]: 10 to 50 nM
GI50 [2]: < 10 nM
GI50 [3]: 10 to 50 nM

Cc1ccc(C(=O)Nc2cc(C(F)(F)F)ccn2)cc1C#Cc1ccc2c(c1)ncn2-c1cn(C2CCN(C)CC2)cn1 [Compound I-34, 4-methyl-3-((1-(1-(1-methylpiperidin-4-yl)-1H-imidazol-4-yl)-1H-benzo[d]imidazol-5-yl)ethynyl)-N-(4-(trifluoromethyl)pyridin-2-yl)benzamide]
GI50 (BAF3 FL KIT EX11DEL): < 10 nM
GI50 [1]: 100 to 10000 nM
GI50 [2]: 10 to 50 nM
GI50 [3]: 100 to 10000 nM

Cc1ccc(C(=O)Nc2cc(C(F)(F)F)ccn2)cc1C#Cc1ccc2c(c1)ncn2-c1cn[nH]c1 [Compound I-35, 3-((1-(1H-pyrazol-4-yl)-1H-benzo[d]imidazol-5-yl)ethynyl)-4-methyl-N-(4-(trifluoromethyl)pyridin-2-yl)benzamide]
GI50 (BAF3 FL KIT EX11DEL): < 10 nM
GI50 [1]: 10 to 50 nM
GI50 [2]: 10 to 50 nM
GI50 [3]: 10 to 50 nM

Cc1ccc(NC(=O)c2cc(C(F)(F)F)ccn2)cc1C#Cc1ccc2c(c1)ncn2-c1cn(C)nn1 [Compound I-36, N-(4-methyl-3-((1-(1-methyl-1H-1,2,3-triazol-4-yl)-1H-benzo[d]imidazol-5-yl)ethynyl)phenyl)-4-(trifluoromethyl)picolinamide]
GI50 (BAF3 FL KIT EX11DEL): < 10 nM
GI50 [1]: 10 to 50 nM
GI50 [2]: 10 to 50 nM
GI50 [3]: 10 to 50 nM

Cc1ccc(C(=O)Nc2ccc(C#N)c(C(F)(F)F)c2)cc1C#Cc1ccc2c(c1)ncn2-c1ccn(C)n1 [Compound I-37, N-(4-cyano-3-(trifluoromethyl)phenyl)-4-methyl-3-((1-(1-methyl-1H-pyrazol-3-yl)-1H-benzo[d]imidazol-5-yl)ethynyl)benzamide]
GI50 (BAF3 FL KIT EX11DEL): < 10 nM
GI50 [1]: 10 to 50 nM
GI50 [2]: 10 to 50 nM
GI50 [3]: 50 to 100 nM

COCCn1cc(-n2cnc3cc(C#Cc4cc(NC(=O)c5cc(C(F)(F)F)ccn5)ccc4C)ccc32)cn1 [Compound I-38, N-(3-((1-(1-(2-methoxyethyl)-1H-pyrazol-4-yl)-1H-benzo[d]imidazol-5-yl)ethynyl)-4-methylphenyl)-4-(trifluoromethyl)picolinamide]
GI50 (BAF3 FL KIT EX11DEL): < 10 nM
GI50 [1]: 50 to 100 nM
GI50 [2]: 10 to 50 nM
GI50 [3]: 10 to 50 nM

Cc1ccc(NC(=O)c2cc(C(F)(F)F)ccn2)cc1C#Cc1ccc2c(c1)ncn2-c1cnn(CCO)c1 [Compound I-39, N-(3-((1-(1-(2-hydroxyethyl)-1H-pyrazol-4-yl)-1H-benzo[d]imidazol-5-yl)ethynyl)-4-methylphenyl)-4-(trifluoromethyl)picolinamide]
GI50 (BAF3 FL KIT EX11DEL): < 10 nM
GI50 [1]: 10 to 50 nM
GI50 [2]: < 10 nM
GI50 [3]: 10 to 50 nM

Cc1ccc(NC(=O)c2cc(C(F)(F)F)ccn2)cc1C#Cc1ccc2c(c1)ncn2-c1cnn(C2CCN(C)CC2)c1 [Compound I-40]
GI50 (BAF3 FL KIT EX11DEL): < 10 nM
GI50 [1]: 100 to 10000 nM
GI50 [2]: 10 to 50 nM
GI50 [3]: 100 to 10000 nM

Cc1ccc(NC(=O)c2cc(C(F)(F)F)ccn2)cc1C#Cc1ccc2c(c1)ncn2-c1cnn(CCN(C)C)c1 [Compound I-41, N-(3-((1-(1-(2-(dimethylamino)ethyl)-1H-pyrazol-4-yl)-1H-benzo[d]imidazol-5-yl)ethynyl)-4-methylphenyl)-4-(trifluoromethyl)picolinamide]
GI50 (BAF3 FL KIT EX11DEL): < 10 nM
GI50 [1]: 100 to 10000 nM
GI50 [2]: 10 to 50 nM
GI50 [3]: 50 to 100 nM

CCN(CC)CCn1cc(-n2cnc3cc(C#Cc4cc(NC(=O)c5cc(C(F)(F)F)ccn5)ccc4C)ccc32)cn1 [Compound I-42, N-(3-((1-(1-(2-(diethylamino)ethyl)-1H-pyrazol-4-yl)-1H-benzo[d]imidazol-5-yl)ethynyl)-4-methylphenyl)-4-(trifluoromethyl)picolinamide]
GI50 (BAF3 FL KIT EX11DEL): 10 to 50 nM
GI50 [1]: 100 to 10000 nM
GI50 [2]: 10 to 50 nM
GI50 [3]: 50 to 100 nM

Cc1ccc(NC(=O)c2cc(C(F)(F)F)ccn2)cc1C#Cc1ccc2c(c1)ncn2-c1cn[nH]c1 [Compound I-43, N-(3-((1-(1H-pyrazol-4-yl)-1H-benzo[d]imidazol-5-yl)ethynyl)-4-methylphenyl)-4-(trifluoromethyl)picolinamide]
GI50 (BAF3 FL KIT EX11DEL): < 10 nM
GI50 [1]: 50 to 100 nM
GI50 [2]: 50 to 100 nM
GI50 [3]: 100 to 10000 nM

Cc1ccc(NC(=O)c2cc(C(F)(F)F)ccn2)cc1C#Cc1ccc2c(c1)ncn2-c1cnn(C)c1 [Compound I-44, N-(4-methyl-3-((1-(1-methyl-1H-pyrazol-4-yl)-1H-benzo[d]imidazol-5-yl)ethynyl)phenyl)-4-(trifluoromethyl)picolinamide]
GI50 (BAF3 FL KIT EX11DEL): < 10 nM
GI50 [1]: 10 to 50 nM
GI50 [2]: 10 to 50 nM
GI50 [3]: 10 to 50 nM

Cc1ccc(NC(=O)c2cc(C(F)(F)F)ccn2)cc1C#Cc1ccc2c(c1)ncn2C [Compound I-45, N-(4-methyl-3-((1-methyl-1H-benzo[d]imidazol-5-yl)ethynyl)phenyl)-4-(trifluoromethyl)picolinamide]
GI50 (BAF3 FL KIT EX11DEL): 10 to 50 nM
GI50 [1]: 50 to 100 nM
GI50 [2]: 10 to 50 nM
GI50 [3]: 50 to 100 nM
